Experimental findings from the NIST ThermoML archive (doi:10.1016/j.jct.2017.10.017) are described below.

The conditions of the series: for Glass transition temperature: DSC; for Normal melting temperature: Crystal, DTA.

± gives the expanded uncertainty stated by the source.

For `CCCC[N+](C)(CCO)CCO.[Br-]` [N,N-bis(2-hydroxyethyl)-N-methylbutan-1-aminium bromide], the Glass transition temperature was -49 ± 6 °C.

As to `CCCCCCCCCC[N+](C)(CCO)CCO.[Br-]` [N,N-bis(2-hydroxyethyl)-N-methyldecan-1-aminium bromide], the Normal melting temperature was 47 ± 6 °C.

Regarding `CCCCCC[N+](C)(CCO)CCO.[Br-]` [N,N-bis(2-hydroxyethyl)-N-methylhexan-1-aminium bromide], the Glass transition temperature is -47 ± 6 °C.

Take `CCCCCCCC[N+](C)(CCO)CCO.[Br-]` [N,N-bis(2-hydroxyethyl)-N-methyloctan-1-aminium bromide]: the Normal melting temperature came to 27 ± 6 °C.

On to `CCCC[N+](CCO)(CCO)CCCC.[Br-]` [N-butyl-N,N-bis(2-hydroxyethyl)butan-1-aminium bromide], for which the Glass transition temperature is -50 ± 6 °C.
